Legend:
[1] = target: Hydroxycarboxylic acid receptor 2 (Homo sapiens) (UniProt Q8TDS4); experiment: Positive allosteric activity at GPR109A in human HEK cells assessed as shift in EC50 of nicotinic acid at 3 uM pretreated for 30 mins measured after 90 mins by [35S]-GTPgammaS binding assay; type: functional, cell-based; conditions: HEK293
[2] = target: Hydroxycarboxylic acid receptor 2 (Homo sapiens) (UniProt Q8TDS4); experiment: Positive allosteric activity at GPR109A in human HEK cells assessed as shift in EC50 of nicotinic acid at 1 uM pretreated for 30 mins measured after 90 mins by [35S]-GTPgammaS binding assay; type: functional, cell-based; conditions: HEK293

Hydroxycarboxylic acid receptor 2 (Homo sapiens), sequence (Q8TDS4 whole entry): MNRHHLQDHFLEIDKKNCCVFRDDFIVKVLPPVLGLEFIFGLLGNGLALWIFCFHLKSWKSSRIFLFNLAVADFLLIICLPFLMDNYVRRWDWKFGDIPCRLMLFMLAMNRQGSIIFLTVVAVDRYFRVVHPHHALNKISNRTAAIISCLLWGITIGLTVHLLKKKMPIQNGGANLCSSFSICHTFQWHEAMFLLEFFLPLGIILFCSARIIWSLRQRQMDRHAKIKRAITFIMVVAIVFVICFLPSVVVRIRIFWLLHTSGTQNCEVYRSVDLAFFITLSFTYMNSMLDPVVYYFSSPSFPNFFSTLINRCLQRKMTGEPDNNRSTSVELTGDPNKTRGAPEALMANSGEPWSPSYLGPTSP

With `Cc1c(C(=O)NCCNc2ccccc2)cnc2c(-c3ccc(C(C)C)cc3)cnn12` the Emax [1] was 129% and the Emax [2] was 120%.

Work on `Cc1c(C(=O)NCCOc2ccccc2)cnc2c(-c3ccc(Cl)c(Cl)c3)cnn12` yielded an Emax [1] of 114%.

`CCc1c(C(=O)NCCOc2ccccc2)cnc2c(-c3ccc(C(C)C)cc3)cnn12` gave an Emax [1] of 129% and an Emax [2] of 122%.

Work on `Cc1c(C(=O)NCCOc2ccccc2)cnc2c(-c3ccc(OC(C)C)cc3)cnn12` yielded an Emax [1] of 123% and an Emax [2] of 111%.
